Test results published in patent publication US4918099A, “Drug, preparation and use thereof” (priority 1985, dated 1990).
Where two headings read alike, the source gives them in different places.

Experiments:
[1] = Blood sugar lowering effect of brazilin in streptozotocin diabetic SD rats; type: in vivo
Description: By intraperitoneally administering streptozotocin (70 mg per 1 kg body weight in 0.1M of citrate buffer solution, pH 4.0) diabetes was induced in SD rats. 20 days after the injection of streptozotocin the blood sugar values of the laboratory animals were measured. The hyperglycemic rats were divided into two groups, viz. into a control group and a test group. For 10 days a dose of 110 mg of brazilin per kg body weight was daily administered to the animals of the test group. Then, the blood sugar values were measured again.

insulin receptors = assay: 125I-insulin binding to erythrocytes of brazilin treated diabetic mice
Description: For interpreting these findings, further tests were made with the aim to find out whether brazilin changes the affinity of the insulin receptors or can possibly increase the number of the insulin receptors.
From the laboratory animals of the above-mentioned control group (diabetic mice) and the test group (diabetic brazilin treated mice) erythrocytes (2.6×10^9 /ml) were taken, ^125 I-insulin was bound thereto (85 pM^125 I), and thereupon incubated in the presence of increasing amounts of unlabelled insulin (32 pM to 1.8 / μm) at 15° C. for 120 min. The amount of specifically bound ^125 I-insulin was then determined by subtracting the non-specifically bound insulin (10 ng/ml). The results obtained are shown in the graph of FIG. 6.

[2] = tested on: fat pads isolated from rats; assay: Glucose oxidation: formation of 14CO2 in fat pads isolated from rats; type: in vivo
Excerpt: Insulin-dependent diabetes mellitus is frequently accompanied by insulin resistance. Frequently an impaired insulin action is also observed with streptozotocin induced diabetic rats. Such an insulin resistance is particularly also attributed to postreceptor defects.
With (a) untreated (normal) control animals (rats), (b) diabetic rats, and (c) diabetic brazilin treated rats glucose oxidation and lipogenesis were investigated (by means of the esterified lipids and the free fatty acids). Diabetes was induced by intravenous administration of streptozotocin (40 mg/kg live weight). Brazilin was administered intraperitoneally for 15 days (100 mg/kg body weight). Within the same period the same volume of saline solution was administered to the untreated animals of the control group.
For determining the effects of brazilin administration on the glucose oxidation, the method described by Winegard et al. (J. Biol. Chem. 233, 267 (1958)) was used, using ^14 C glucose (1-^14 C-glucose).

[3] = tested on: platelet aggregation in diabetic human plasma; assay: Platelet aggregation in diabetic human plasma induced by ADP; type: cell-based
Description: (§1) The platelet aggregation was determined by a tubimetric method in a dual-channel aggregometer, assuming that a platelet-poor plasma represented 100% aggregation and that a platelet-rich plasma represented 0% aggregation. Each aggregometer tube was charged with 40 μl of platelet-rich plasma and 50 μl of test sample solution. The mixture was incubated at 37° C. for 2 min., whereupon 50 μl of ADP solution were added. Percent inhibition of the platelet aggregation caused by the test sample solution was calculated as follows: [formula]

[4] = tested on: platelet aggregation in normal human plasma; assay: Platelet aggregation in normal human plasma induced by ADP; type: cell-based; details: for T/min, Aggregation (first value) / Tmax, Aggregation (first value): control 75.1; for activity at 1000 µM / inhibition at 1000 µM / activity at 100 µM / inhibition at 100 µM: Homo sapiens, Platelet; for activity at 1000 µM / activity at 100 µM: control 100
Description: as §1

[5] = tested on: thrombin stimulated platelets; assay: Malon dialdehyde (MDA) production by thrombin stimulated platelets; type: in vivo, rats
Excerpt: Thromboxane A2 is the potent substance inducing platelet aggregation. MDA is formed through the same enzyme system as thromboxane A2. Inhibition of MDA production may be due to the following factors:
If an inhibiting action on MDA is detectable but no significant influence on the prostacyclin production can be detected, a selective inhibiting action on thromboxane A2 may be inferred.
Rats were divided into four test groups, viz.
Group B: Normal rats (8 laboratory animals) to which an aqueous brazilin solution (comprising 110 mg of brazilin per kg body weight) was daily administered from the 20th to the 30th day
Group D: Diabetic rats (10 laboratory animals); for inducing diabetes, a dose of 70 mg of streptozotocin per kg body weight in 0.1M citrate buffer solution (pH 4.0) was administered intraperitoneally to normal rats on the 1st test day. From the 20th to the 30th day of the test aqueous brazilin solution (comprising 110 mg of brazilin per kg body weight) was daily administered orally to these diabetic rats. (Instead of an aqueous brazilin solution, the same amount of distilled water was administered to the laboratory animals of the groups A and C from the 20th to the 30th day.)
After expiration of the 30th test day, the test animals were sacrificed, and the MDA production was determined by means of thrombin stimulated platelets.

[6] = tested on: erythrocyte deformability; assay: Erythrocyte deformability (filtration rate of blood); type: in vivo, rats
Description: Increased blood viscosity and reduced erythrocyte deformability are typical pathological states of diabetic subjects. The effect of brazilin administration to diabetic laboratory animals (rats) on the blood viscosity and erythrocyte deformability of these animals was examined.
For administering brazilin, the laboratory animals were daily injected intraperitoneally with a dose of 100 mg of brazilin per kg body weight for 10 days. For inducing diabetes, a dose of 175 mg of alloxan per kg body weight was administered intraperitoneally.
For determining the erythrocyte deformability, the filtration rate of blood of the various laboratory animals containing approximately 4.9×10^12 erythrocytes per l was determined under common, standardized conditions.

[7] = Planta Med. 31, 214-220 (1977); cited from earlier work
[8] = Rev. Latinoam. Microbiol. 1, 225-232 (1958); cited from earlier work
plasmalipid = details: spontaneously hypertensive rats; Fette-Seifen-Anstrichmittel 87, 74-76 (1985); cited from earlier work

Oc1ccc2c(c1)OC[C@]1(O)Cc3cc(O)c(O)cc3[C@H]21 [brazilin]
Blood sugar ([1]; diabetic rats, 30 days after onset of diabetes, 110 mg/kg daily 10 days, before treatment (20 days) 266 ± 16.7, diabetic control 337 ± 45.6): 165 ± 42.7 mg/100 ml | Blood sugar ([1]; normal rats, brazilin treated, 30 days, normal control 79 ± 22.2): 77 ± 20.3 mg/100 ml | lowering of the blood sugar values ([1]; streptozotocin diabetic rats, 110 mg/kg daily): significant lowering of the blood sugar values | affinity of the insulin receptors (insulin receptors; erythrocytes, 15° C., 120 min, treated vs. control (FIGS. 6, 7)): no significant affinity differences | number of insulin receptors (insulin receptors; peripheral erythrocytes, treated vs. control): increase of the number of the peripheral insulin receptors | restoration of initial CO2 production, basal ([2]; diabetic rats + brazilin): 74.6% | Glucose→CO2, basal ([2]; diabetic rats + brazilin 100 mg/kg i.p. 15 days, n=8, P < 0.01 vs. diabetic control, diabetic 109.1, normal 172.8): 156.6 ± 14.7 nmol/100 mg tissue/120 min | restoration of initial CO2 production, insulin stimulated ([2]; diabetic rats + brazilin, insulin 25 ng/ml): 14.5% | Glucose→CO2, insulin stimulated ([2]; insulin 25 ng/ml, diabetic rats + brazilin, n=8, P < 0.1 vs diabetic control, diabetic 236.6, normal 694.2): 303.1 ± 19.0 nmol/100 mg tissue/120 min | T/min, Aggregation (first value) ([3]; 10^-3 M, control 78.7): 8.75% | Tmax, Aggregation (first value) ([3]; 10^-3 M, control 78.7): 46.3% | Tmax, Aggregation (first value) ([3]; 10^-4 M, control 78.7): 70.0% | activity at 1000 µM ([3]; Homo sapiens, Platelet, 10^-3 M, control 100, read-out: Tmax, Aggregation relative to control (second value)): 58.8% | inhibition at 1000 µM ([3]; Homo sapiens, Platelet, 10^-3 M, read-out: T/min, Inhibition): 88.9% | inhibition at 1000 µM ([3]; Homo sapiens, Platelet, 10^-3 M, read-out: Tmax, Inhibition): 41.2% | activity at 100 µM ([3]; Homo sapiens, Platelet, 10^-4 M, control 100, read-out: Tmax, Aggregation relative to control (second value)): 88.9% | inhibition at 100 µM ([3]; Homo sapiens, Platelet, 10^-4 M, read-out: Tmax, Inhibition): 11.1% | inhibition of the platelet aggregation ([3]; conclusion on Tables 12 and 13): considerable inhibition of the platelet aggregation | T/min, Aggregation (first value) ([4]; 10^-3 M): 21.1% | Tmax, Aggregation (first value) ([4]; 10^-3 M): 31.5% | T/min, Aggregation (first value) ([4]; 10^-4 M): 34.8% | Tmax, Aggregation (first value) ([4]; 10^-4 M): 60.7% | activity at 1000 µM ([4]; 10^-3 M, read-out: T/min, Aggregation relative to control (second value)): 28.1% | activity at 1000 µM ([4]; 10^-3 M, read-out: Tmax, Aggregation relative to control (second value)): 41.8% | inhibition at 1000 µM ([4]; 10^-3 M, read-out: T/min, Inhibition): 71.9% | inhibition at 1000 µM ([4]; 10^-3 M, read-out: Tmax, Inhibition): 58.2% | activity at 100 µM ([4]; 10^-4 M, read-out: T/min, Aggregation relative to control (second value)): 46.4% | activity at 100 µM ([4]; 10^-4 M, read-out: Tmax, Aggregation relative to control (second value)): 80.1% | inhibition at 100 µM ([4]; 10^-4 M, read-out: T/min, Inhibition): 53.6% | inhibition at 100 µM ([4]; 10^-4 M, read-out: Tmax, Inhibition): 19.9% | MDA ([5]; Group B, thrombin 0,2 I. un., normal control 4.16): 0.58 ± 0.30 nmol/10 platelets | MDA ([5]; Group B, thrombin 1,0 I. un., normal control 2.46): 1.02 ± 0.48 nmol/10 platelets | MDA ([5]; Group D, thrombin 0,2 I. un., diabetic control 2.86): 0.76 ± 0.21 nmol/10 platelets | MDA ([5]; Group D, thrombin 1,0 I. un., diabetic control 3.38): 1.10 ± 0.31 nmol/10 platelets | MDA ([5]; normal rats + brazilin 110 mg/kg daily (Group B), thrombin 5,0 I. un., normal control 5.16): 2.20 ± 0.58 nmol/10 platelets | inhibition of MDA production ([5]; rats, 110 mg/kg daily): inhibiting effect on MDA production | Filtration rate ([6]; alloxan diabetic rats + brazilin, P < 0.01 vs. untreated and vs. diabetic control (17.4)): 19.6 ± 0.4 mL/min | effect on filtration rate of diabetic animals ([6]; diabetic rats + brazilin): significant increase of the filtration rate | effect on erythrocyte deformability ([6]; diabetic rats vs. control group): significant increase of the erythrocyte deformability | Filtration rate ([6]; normal rats + brazilin 100 mg/kg i.p. 10 days, normal 22.9): 23.1 ± 0.3 mL/min | effect on filtration rate of normal animals ([6]; untreated control group + brazilin): did not signficantly influence the filtration rate | anti-inflammatory effect [7]: anti-inflammatory effect | antibacterial effect [8]: antibacterial effect | plasmalipid-reducing effect (plasmalipid): plasmalipid-reducing effect
